What was measured:
Test in all cases: combination Emax (second highest fraction inhibited in the dose matrix, 72 h); higher = more inhibition; extreme values may be limits of the assay
[1] = system: HCC1954 (Breast Carcinoma)
Summary of the method: (§1)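 Cell lines in DMEM/F12 or RPMI with 10% FBS were plated in 1536-well plates, held 24 hours at 37°C, 5% CO2, then given two-drug dose matrices for 72 hours (DMSO typically 0.2%). Viability was read by CellTiter-Glo 2.0 luminescence and scaled as inhibition from 0 (vehicle wells) to 1 (blank wells). Combination Emax is the second-highest inhibition in the matrix; Bliss excess is observed combination effect minus expected EA + EB − EA·EB, EA and EB being single-agent effects.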

[2] = system: CAPAN-2 (Pancreatic Carcinoma)
Summary of the method: as §1

Hs-445 (Non-Cancerous) = system: Hs-445 (Non-Cancerous)
Summary of the method: as §1

A498 (Kidney Carcinoma) = system: A498 (Kidney Carcinoma)
Summary of the method: as §1

CAS-1 (Glioblastoma) = system: CAS-1 (Glioblastoma)
Summary of the method: as §1

[3] = system: A3-KAW (B-Cell Non-Hodgkin's Lymphoma)
Summary of the method: as §1

| SMILES | combination Emax [1] | combination Emax [2] | combination Emax (Hs-445 (Non-Cancerous)) | combination Emax (A498 (Kidney Carcinoma)) | combination Emax (CAS-1 (Glioblastoma)) | combination Emax [3] |
| --- | --- | --- | --- | --- | --- | --- |
| Cc1c2c(nn1C)CSCc1cc(n(C)n1)CSc1cc(c3ccccc3c1)OCCCc1c(C(=O)O)n(C)c3c-2c(Cl)ccc13 [AZD5991] + CN(C)CCCOc1ccc(-c2ccc3ncc4c(c3c2)n(C2CCOCC2)c(=O)n4C)cn1 [AZD0156] (first compound max 1 µM, 7x7, partner max 1 µM) | 0.978 | 0.276 | 0.949 | 0.392 | 0.532 | 1 |
| CC1(C)CCC(CN2CCN(c3ccc(C(=O)NS(=O)(=O)c4ccc(NCC5CCOCC5)c([N+](=O)[O-])c4)c(Oc4cnc5[nH]ccc5c4)c3)CC2)=C(c2ccc(Cl)cc2)C1 [Venetoclax] + CCN(CCO)CCCOc1ccc2c(Nc3cc(CC(=O)Nc4cccc(F)c4)[nH]n3)ncnc2c1 [AZD2811] (first compound max 1 µM, 7x7, partner max 1 µM) | 0.293 | 0.204 | 0.68 | 0.216 | 0.271 | 0.286 |
| COc1cccc(OCCCN)c1-c1cc(Nc2cnc(C#N)cn2)n[nH]1 [Prexasertib] + CCc1c2c(nc3ccc(O)cc13)-c1cc3c(c(=O)n1C2)COC(=O)[C@]3(O)CC [SN-38] (first compound max 1 µM, 7x7, partner max 0.3 µM) | 0.929 | 0.495 | 1 | 0.733 | 0.834 | 1 |
| Cc1c2c(nn1C)CSCc1cc(n(C)n1)CSc1cc(c3ccccc3c1)OCCCc1c(C(=O)O)n(C)c3c-2c(Cl)ccc13 [AZD5991] + C[C@@H](Nc1cc(F)cc(F)c1)c1cc(C(=O)N(C)C)cc2c(=O)cc(N3CCOCC3)oc12 [AZD8186] (first compound max 1 µM, 7x7, partner max 3 µM) | 0.974 | 0.252 | 0.929 | 0.742 | 0.467 | 1 |
| CCN(CCO)CCCOc1ccc2c(Nc3cc(CC(=O)Nc4cccc(F)c4)[nH]n3)ncnc2c1 [AZD2811] + O=C(c1cc(Cc2n[nH]c(=O)c3ccccc23)ccc1F)N1CCN(C(=O)C2CC2)CC1 [Olaparib] (first compound max 1 µM, 7x7, partner max 10 µM) | 0.152 | 0.184 | 0.426 | 0.241 | 0.255 | 0.688 |
| COc1cc2c(cc1OCCCCCOc1cc3c(cc1OC)C(=O)N1C=C(C)C[C@H]1C=N3)N=C[C@@H]1CC(C)=CN1C2=O [SG3199] + O=C(c1cc(Cc2n[nH]c(=O)c3ccccc23)ccc1F)N1CCN(C(=O)C2CC2)CC1 [Olaparib] (first compound max 0.001 µM, 7x7, partner max 10 µM) | 0.165 | 0.0949 | 0.086 | 0.173 | 0.235 | 0.595 |
| COc1cccc(OCCCN)c1-c1cc(Nc2cnc(C#N)cn2)n[nH]1 [Prexasertib] + CN(C)CCCOc1ccc(-c2ccc3ncc4c(c3c2)n(C2CCOCC2)c(=O)n4C)cn1 [AZD0156] (first compound max 1 µM, 7x7, partner max 1 µM) | 0.862 | 0.592 | 0.97 | 0.725 | 0.674 | 1 |
| COc1cccc(OCCCN)c1-c1cc(Nc2cnc(C#N)cn2)n[nH]1 [Prexasertib] + C=CCn1c(=O)c2cnc(Nc3ccc(N4CCN(C)CC4)cc3)nc2n1-c1cccc(C(C)(C)O)n1 [AZD1775] (first compound max 1 µM, partner max 1 µM) | 0.963 | 0.569 | 0.947 | 0.598 | 0.696 | 1 |
| COc1nnc2ccc(N3CCC(c4ccc(OCCN5CCN(C)C(=O)[C@H]5C)cc4)CC3)nn12 [AZD5153] + Cc1c2c(nn1C)CSCc1cc(n(C)n1)CSc1cc(c3ccccc3c1)OCCCc1c(C(=O)O)n(C)c3c-2c(Cl)ccc13 [AZD5991] (first compound max 1 µM, 7x7, partner max 1 µM) | 0.956 | 0.296 | 0.618 | 0.529 | 0.64 | 1 |
| CCc1c2c(nc3ccc(O)cc13)-c1cc3c(c(=O)n1C2)COC(=O)[C@]3(O)CC [SN-38] + O=C(c1cc(Cc2n[nH]c(=O)c3ccccc23)ccc1F)N1CCN(C(=O)C2CC2)CC1 [Olaparib] (first compound max 0.3 µM, 7x7, partner max 10 µM) |  | 0.137 | 1 | 0.598 | 0.609 |  |
| Cc1c2c(nn1C)CSCc1cc(n(C)n1)CSc1cc(c3ccccc3c1)OCCCc1c(C(=O)O)n(C)c3c-2c(Cl)ccc13 [AZD5991] + Cn1cnc2c(F)c(Nc3ccc(Br)cc3Cl)c(C(=O)NOCCO)cc21 [Selumetinib] (first compound max 1 µM, 7x7, partner max 3 µM) | 0.982 | 0.482 | 0.932 | 0.611 | 0.286 | 1 |
| Cc1c2c(nn1C)CSCc1cc(n(C)n1)CSc1cc(c3ccccc3c1)OCCCc1c(C(=O)O)n(C)c3c-2c(Cl)ccc13 [AZD5991] + C=CCn1c(=O)c2cnc(Nc3ccc(N4CCN(C)CC4)cc3)nc2n1-c1cccc(C(C)(C)O)n1 [AZD1775] (first compound max 1 µM, partner max 1 µM) | 0.978 | 0.428 | 1 | 0.602 | 0.852 | 1 |
| Cn1cnc2c(F)c(Nc3ccc(Br)cc3Cl)c(C(=O)NOCCO)cc21 [Selumetinib] + C[C@@H]1COCCN1C2=NC(=NC(=C2)C3(CC3)[S@](=N)(=O)C)C4=C5C=CNC5=NC=C4 [AZD6738] (first compound max 10 µM, 7x7, partner max 10 µM) | 0.432 | 0.428 | 0.755 | 0.57 | 0.545 | 1 |
| Cc1cc2ncnn2cc1Nc1ncc2c(n1)n(C1CCOCC1)c(=O)n2C [AZD7648] + O=C(c1cc(Cc2n[nH]c(=O)c3ccccc23)ccc1F)N1CCN(C(=O)C2CC2)CC1 [Olaparib] (first compound max 10 µM, 7x7, partner max 10 µM) | 0.161 | 0.0547 | 0.373 | 0.441 | 0.271 | 0.656 |
| CN(CCO)CC[C@H](CSc1ccccc1)Nc1ccc(S(=O)(=O)NC(=O)c2ccc(N3CCC([C@@H](O)c4ccccc4-c4ccc(Cl)cc4)CC3)cc2)cc1S(=O)(=O)C(F)(F)F [AZD4320] + CN(C)CCCOc1ccc(-c2ccc3ncc4c(c3c2)n(C2CCOCC2)c(=O)n4C)cn1 [AZD0156] (first compound max 1 µM, 7x7, partner max 1 µM) | 0.327 | 0.634 | 0.497 | 0.254 | 0.229 | 0.228 |
| CCN(CCO)CCCOc1ccc2c(Nc3cc(CC(=O)Nc4cccc(F)c4)[nH]n3)ncnc2c1 [AZD2811] + C[C@@H]1COCCN1C2=NC(=NC(=C2)C3(CC3)[S@](=N)(=O)C)C4=C5C=CNC5=NC=C4 [AZD6738] (first compound max 1 µM, 7x7, partner max 10 µM) | 0.39 | 0.29 | 0.832 | 0.647 | 0.544 | 0.968 |
| C=CCn1c(=O)c2cnc(Nc3ccc(N4CCN(C)CC4)cc3)nc2n1-c1cccc(C(C)(C)O)n1 [AZD1775] + C[C@@H]1COCCN1C2=NC(=NC(=C2)C3(CC3)[S@](=N)(=O)C)C4=C5C=CNC5=NC=C4 [AZD6738] (first compound max 1 µM, partner max 10 µM) | 0.77 | 0.486 | 0.914 | 0.682 | 0.657 | 0.992 |
| COc1cccc(OCCCN)c1-c1cc(Nc2cnc(C#N)cn2)n[nH]1 [Prexasertib] + Cc1cc2ncnn2cc1Nc1ncc2c(n1)n(C1CCOCC1)c(=O)n2C [AZD7648] (first compound max 1 µM, 7x7, partner max 10 µM) | 0.843 | 0.593 | 0.954 | 0.642 | 0.71 | 1 |
| CCc1c2c(nc3ccc(O)cc13)-c1cc3c(c(=O)n1C2)COC(=O)[C@]3(O)CC [SN-38] + CN(C)CCCOc1ccc(-c2ccc3ncc4c(c3c2)n(C2CCOCC2)c(=O)n4C)cn1 [AZD0156] (first compound max 0.3 µM, 7x7, partner max 1 µM) | 0.376 | 0.206 | 0.993 | 0.5 | 0.494 | 1 |
| Cc1c2c(nn1C)CSCc1cc(n(C)n1)CSc1cc(c3ccccc3c1)OCCCc1c(C(=O)O)n(C)c3c-2c(Cl)ccc13 [AZD5991] + CC1(C)CCC(CN2CCN(c3ccc(C(=O)NS(=O)(=O)c4ccc(NCC5CCOCC5)c([N+](=O)[O-])c4)c(Oc4cnc5[nH]ccc5c4)c3)CC2)=C(c2ccc(Cl)cc2)C1 [Venetoclax] (first compound max 1 µM, 7x7, partner max 1 µM) | 0.967 | 0.153 | 0.962 | 0.361 | 0.286 | 1 |
| CC(=O)c1c(C)c2cnc(Nc3ccc(N4CCNCC4)cn3)nc2n(C2CCCC2)c1=O [Palbociclib] + CN(CC[C@H](CSC1=CC=CC=C1)NC2=C(C=C(C=C2)S(=O)(=O)NC(=O)C3=CC=C(C=C3)N4CCC(CC4)[C@H](C5=CC=CC=C5C6=CC=C(C=C6)Cl)O)S(=O)(=O)C(F)(F)F)CCO [AZD4320] (first compound max 10 µM, 7x7, partner max 1 µM) | 0.32 |  | 0.95 | 0.658 | 0.405 | 0.867 |
| C[C@@H](c1ccc2nccn2c1)n1nnc2ncc(-c3cnn(C)c3)nc21 [Savolitinib] + CN(CC[C@H](CSC1=CC=CC=C1)NC2=C(C=C(C=C2)S(=O)(=O)NC(=O)C3=CC=C(C=C3)N4CCC(CC4)[C@H](C5=CC=CC=C5C6=CC=C(C=C6)Cl)O)S(=O)(=O)C(F)(F)F)CCO [AZD4320] (first compound max 1 µM, 7x7, partner max 1 µM) | 0.412 |  | 0.625 | 0.308 | 0.176 | 0.128 |
| COc1nnc2ccc(N3CCC(c4ccc(OCCN5CCN(C)C(=O)[C@H]5C)cc4)CC3)nn12 [AZD5153] + CN(CC[C@H](CSC1=CC=CC=C1)NC2=C(C=C(C=C2)S(=O)(=O)NC(=O)C3=CC=C(C=C3)N4CCC(CC4)[C@H](C5=CC=CC=C5C6=CC=C(C=C6)Cl)O)S(=O)(=O)C(F)(F)F)CCO [AZD4320] (first compound max 1 µM, 7x7, partner max 1 µM) | 0.322 |  | 0.889 | 0.66 | 0.587 | 1 |

— the supplement of paper PMC11061612
